From patent US20100249163A1, “RENIN INHIBITORS” (priority 2007, published 2010)

Key:
[1] = biological target: T1, human recombinant renin (Homo sapiens, UniProt P00797); assay: Renin IC50, QFRET (quenched fluorescence resonance energy transfer) assay; assay type: biochemical; conditions: FRET (quenched fluorescence resonance energy transfer) assay
T1 sequence (P00797 67-406): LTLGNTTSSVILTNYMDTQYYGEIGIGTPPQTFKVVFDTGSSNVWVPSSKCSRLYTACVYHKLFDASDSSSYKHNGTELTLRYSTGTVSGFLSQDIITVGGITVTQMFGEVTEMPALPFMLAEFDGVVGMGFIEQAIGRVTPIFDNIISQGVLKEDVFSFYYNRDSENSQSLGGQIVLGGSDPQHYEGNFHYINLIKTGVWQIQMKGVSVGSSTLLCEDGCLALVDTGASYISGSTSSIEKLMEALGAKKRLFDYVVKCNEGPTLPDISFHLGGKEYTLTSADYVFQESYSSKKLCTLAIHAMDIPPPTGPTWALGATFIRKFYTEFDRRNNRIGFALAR

[2] = biological target: T2, renin in human plasma (Homo sapiens, UniProt P00797); assay: Inhibition of renin in human plasma; assay type: biochemical; conditions: human plasma assay
T2 construct: host or cells: recombinant enzyme added to human plasma from 10 normal donors
T2 sequence (P00797 67-406): T1 sequence (P00797 67-406)

IC50 [1] [nM]	IC50 [2] [nM]	SMILES
1	4.7	COCCCc1cc(CN(C(=O)[C@H]2CNCC[C@]2(OC)c2ccc(F)c(F)c2)C2CC2)cc(OCCOC)c1 (racemic) [Example 35, Rac-(3S,4R)—N-cyclopropyl-4-(3,4-difluorophenyl)-4-methoxy-N-[3-(2-methoxyethoxy)-5-(3-methoxypropyl)benzyl]piperidine-3-carboxamide]
2.4	4.8	COCCc1ccc(Cl)c(CN(C(=O)[C@H]2CNCC[C@]2(OCC(O)CO)c2ccc(F)c(F)c2)C2CC2)c1 (stereo partly drawn) [Example 54, (3S,4R)—N-[2-chloro-5-(2-methoxyethyl)benzyl]-N-cyclopropyl-4-(3,4-difluorophenyl)-4-(2,3-dihydroxypropoxy)piperidine-3-carboxamide]
3.9	21	COCCCc1cc(CN(C(=O)[C@H]2CNCC[C@]2(OCc2cnn[nH]2)c2ccc(F)c(F)c2)C2CC2)cc(OCCOC)c1 [Example 51, (3S,4R)—N-cyclopropyl-4-(3,4-difluorophenyl)-N-[3-(2-methoxyethoxy)-5-(3-methoxypropyl)benzyl]-4-(1H-1,2,3-triazol-5-ylmethoxy)piperidine-3-carboxamide]
76	136	COCCCc1cc(CN(C(=O)[C@H]2CNCC[C@]2(O)c2ccn(C)c(=O)c2)C2CC2)cc(OCCOC)c1 (racemic) [Example 23, rac-(3S,4R)—N-cyclopropyl-4-hydroxy-N-[3-(2-methoxyethoxy)-5-(3-methoxypropyl)benzyl]-4-(1-methyl-2-oxo-1,2-dihydropyridin-4-yl)piperidine-3-carboxamide]
140	280	COCCCc1cc(CN(C(=O)[C@H]2CNCC[C@]2(O)c2cccnc2)C2CC2)cc(OCCOC)c1 (racemic) [Example 2, rac-(3S,4R)—N-cyclopropyl-4-hydroxy-N-[3-(2-methoxyethoxy)-5-(3-methoxypropyl)benzyl]-4-pyridin-3-ylpiperidine-3-carboxamide]
2.7	11	COCCCc1cc(CN(C(=O)[C@H]2CNCC[C@]2(OCCOC)c2ccc(F)c(F)c2)C2CC2)cc(OCCOC)c1 [Example 49, (3S,4R)—N-cyclopropyl-4-(3,4-difluorophenyl)-4-(2-methoxyethoxy)-N-[3-(2-methoxyethoxy)-5-(3-methoxypropyl)benzyl]piperidine-3-carboxamide]
1.1	61	COCCCc1cc(CN(C(=O)[C@H]2CNCC[C@]2(OCc2ccc(F)cc2)c2ccc(F)c(F)c2)C2CC2)cc(OCCOC)c1 [Example 48, (3S,4R)—N-cyclopropyl-4-(3,4-difluorophenyl)-4-[(4-fluorobenzyl)oxy]-N-[3-(2-methoxyethoxy)-5-(3-methoxypropyl)benzyl]piperidine-3-carboxamide]
